Assay results taken from ChEMBL document CHEMBL1126523, “Synthesis and antiflammatory activity of some 3-heterocycle-1,2-benzisothiazoles” (1993).

How the values were obtained:
Type in all cases: functional
Rattus norvegicus [1] = assay: Tested for % inhibition in carrageenan-induced rat paw adema after intraperitoneal administration of 100 mg/kg dose at 2 hours; conditions: ip
Rattus norvegicus [2] = assay: Tested for % inhibition in carrageenan-induced rat paw adema after intraperitoneal administration of 100 mg/kg dose at 3.5 hours; conditions: ip
Rattus norvegicus [3] = assay: Tested for % inhibition in carrageenan-induced rat paw adema after peroral administration of 100 mg/kg dose at 2 hours; conditions: route oral
Rattus norvegicus [4] = assay: Tested for % inhibition in carrageenan-induced rat paw adema after peroral administration of 100 mg/kg dose at 3.5 hours; conditions: route oral

SMILES | inhibition in vivo at 100 mg/kg (Rattus norvegicus [1]) [%] | inhibition in vivo at 100 mg/kg (Rattus norvegicus [2]) [%] | inhibition in vivo at 100 mg/kg (Rattus norvegicus [3]) [%] | inhibition in vivo at 100 mg/kg (Rattus norvegicus [4]) [%]
c1ccc(-c2nnc(-c3nsc4ccccc34)o2)cc1 | 60 | 48 | 60 | 32
CCn1c(S)nnc1-c1nsc2ccccc12 | 64 | 50 | 57 | 32
Cc1nnc(-c2nsc3ccccc23)o1 | 69 | 42 | 43 | 21
CCNc1nnc(-c2nsc3ccccc23)o1 | 65 | 42 | 53 | 29
Clc1ccc(Nc2nnc(-c3nsc4ccccc34)o2)cc1 | 48 | 40 | 14 | 10
COc1ccc(-c2nnc(-c3nsc4ccccc34)o2)cc1 | 45 | 33 | 21 | 29
c1ccc(Nc2nnc(-c3nsc4ccccc34)o2)cc1 | 67 | 48 | 56 | 27
CNc1nnc(-c2nsc3ccccc23)o1 | 67 | 60 | 10 | 10
c1ccc(-c2nnc(-c3nsc4ccccc34)s2)cc1 | 21 | 10 | 10 | 22
Clc1ccc(-c2nnc(-c3nsc4ccccc34)o2)cc1 | 50 | 33 | 13 | 24
COc1ccc(Nc2nnc(-c3nsc4ccccc34)o2)cc1 | 59 | 50 | 28 | 33
c1ccc(Nc2nnc(-c3nsc4ccccc34)s2)cc1 | 62 | 48 | 8 | 10
CCNc1nnc(-c2nsc3ccccc23)s1 | 59 | 50 | 34 | 25
Sc1nnc(-c2nsc3ccccc23)n1-c1ccccc1 | 81 | 60 | 10 | 10
CCc1nnc(-c2nsc3ccccc23)s1 | 10 | 10 | 10 | 12
CCc1nnc(-c2nsc3ccccc23)o1 | 10 | 10 | 10 | 18
CC(C)Cc1ccc(C(C)C(=O)O)cc1 (stereo not drawn) [IBUPROFEN] | 70 | 74 | 62 | 65
